According to patent publication US8088890B2, “Peptides and peptidomimetic compounds, the manufacturing thereof as well as their use for preparing a therapeutically and/or preventively active pharmaceutical composition” (Fibrex Medical Research & Development GmbH, priority 2008, dated 2012):

System: RhoA
Experiment: thrombin induced RhoA activation in human umbilical vein endothelial cell (HUVEC) culture (Rho pull-down, Western blot)
Format: cell-based
Details: 5 U/ml thrombin alone, 5 min
Method: The biological effect of the compounds was established in a model thrombin induced RhoA activation in human umbilical vein endothelial cell (HUVEC) culture.
HUVEC are grown to confluence under standard conditions. Before induction of Rho activity HUVEC were starved for 4 h by using IMDM (Gibco) without growth factor and serum supplements. After the starvation period 5 U/ml Thrombin (Calbiochem) or 5 U thrombin plus 50 μg/ml of test compound are added to the starvation medium for 1, 5 and 10 min. Active RhoA was isolated using Rho Assay Reagent from Upstate according to manufactures instructions. Isolates were separated on a 15% polyacrylamide gel and blotted on Nitrocellulose-Membrane (Bio-Rad). RhoA was detected by using Anti-Rho (-A, -B, -C), clone55 from Upstate (1:500).

thrombin
Relative RhoA stimulation compared to unstimulated control: 6.2
